Assay results from the supplement of paper PMC4862054.
Values joined by “and” are separate entries in the source; they are usually repeats but may differ in a detail not shown here. Equal values may be shown once.

Columns and labels:
Details in all cases: incubation time: 72 h
MDA-MB-468 = assay: normalised response (% of control), CellTiter-Glo; higher = more viable cells (100 = DMSO, 0 = benzethonium chloride kill control)
Procedure: (§1)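 DSRT, 72 h incubation, CellTox Green / CellTiter-Glo readout. Signal is normalised to DMSO and benzethonium chloride controls. Value is the normalised response at the highest dose.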

MDA-MB-453 [1] = assay: as above
Procedure: as §1

MFM-223 = assay: as above
Procedure: as §1

CAL-51 [2] = assay: as above
Procedure: as §1

HCC1937 = assay: as above
Procedure: as §1

HCC1143 = assay: as above
Procedure: as §1

Hs578T = assay: as above
Procedure: as §1

CAL-148 [3] = assay: as above
Procedure: as §1

MDA-MB-436 = assay: as above
Procedure: as §1

HCC1599 = assay: as above
Procedure: as §1

DU-4475 [4] = assay: as above
Procedure: as §1

BT-474 = assay: as above
Procedure: as §1

MCF-10A = assay: as above
Procedure: as §1

HDQ-P1 [5] = assay: as above
Procedure: as §1

BT-549 = assay: as above
Procedure: as §1

CAL-85-1 [6] = assay: as above
Procedure: as §1

SK-BR-3 = assay: as above
Procedure: as §1

MDA-MB-231 = assay: as above
Procedure: as §1

MDA-MB-453 [7] = assay: normalised viability (% of control), CellTiter-Blue; higher = more viable cells (about 100 = DMSO control)
Procedure: (§2)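 DSRT, CellTiter-Blue viability, 72 h incubation. Signal is normalised to DMSO and benzethonium chloride controls. Value is the normalised response at dose 9.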

CAL-51 [8] = assay: as above
Procedure: as §2

CAL-148 [9] = assay: as above
Procedure: as §2

DU-4475 [10] = assay: as above
Procedure: as §2

HDQ-P1 [11] = assay: as above
Procedure: as §2

CAL-85-1 [12] = assay: as above
Procedure: as §2

Structure (SMILES) | normalised response (MDA-MB-468) | normalised response (MDA-MB-453 [1]) | normalised response (MFM-223) | normalised response (CAL-51 [2]) | normalised response (HCC1937) | normalised response (HCC1143) | normalised response (Hs578T) | normalised response (CAL-148 [3]) | normalised response (MDA-MB-436) | normalised response (HCC1599) | normalised response (DU-4475 [4]) | normalised response (BT-474) | normalised response (MCF-10A) | normalised response (HDQ-P1 [5]) | normalised response (BT-549) | normalised response (CAL-85-1 [6]) | normalised response (SK-BR-3) | normalised response (MDA-MB-231) | normalised viability (MDA-MB-453 [7]) | normalised viability (CAL-51 [8]) | normalised viability (CAL-148 [9]) | normalised viability (DU-4475 [10]) | normalised viability (HDQ-P1 [11]) | normalised viability (CAL-85-1 [12])
Cc1c(N)nc([C@H](CC(N)=O)NC[C@H](N)C(N)=O)nc1C(=O)N[C@H](C(=O)N[C@H](C)[C@@H](O)[C@H](C)C(=O)N[C@H](C(=O)NCCc1nc(-c2nc(C(=O)NCCC[S+](C)C)cs2)cs1)[C@@H](C)O)[C@@H](OC1OC(CO)C(O)C(O)C1OC1OC(CO)C(O)C(OC(N)=O)C1O)c1cnc[nH]1 (stereo partly drawn) [Bleomycin] (10000 nM) | 48.8% | 124% | 108% | 37.9% | 45.8% | 48.5% | 69.6% | 63.3% | 39.1% | 88.7% | 78.9% | 65.3% | 53% | 78.5% | 32.6% | 64.3% | 67.4% | 74.8% | 94.2% | 51.7% | 82.8% | 98.7% | 64.7% | 96.9%
Cc1cc2c(F)c(Oc3ncnn4cc(OC[C@@H](C)O)c(C)c34)ccc2[nH]1 [Brivanib] (1000 nM) | 107% | 108% | 110% | 83% | 95.1% | 100% | 101% | 112% | 112% | 104% | 103% | 108% | 108% | 97.7% | 98.3% | 93.4% | 113% | 104% | 99.1% | 101% | 86.8% | 107% | 117% | 86.9%
CCCCCOC(=O)Nc1nc(=O)n([C@@H]2O[C@H](C)[C@@H](O)[C@H]2O)cc1F [Capecitabine] (10000 nM) | 104% | 103% | 102% | 107% | 107% | 92.8% | 105% | 109% | 78.6% | 90.4% | 90.7% | 95.3% | 102% | 81.3% | 108% | 56% | 74.5% | 100% |  | 88.9% and 91.6% | 75.5% and 97.8% | 88.5% and 90.4% | 105% and 87.3% | 
CC(C)C[C@H](NC(=O)[C@H](CCc1ccccc1)NC(=O)CN1CCOCC1)C(=O)N[C@@H](Cc1ccccc1)C(=O)N[C@@H](CC(C)C)C(=O)[C@@]1(C)CO1 [Carfilzomib] (1000 nM) | 1.29% | 14.3% | 6.19% | 1.12% | 2.47% | 5.78% | 0.58% | 7.77% | 2.1% | 8.99% | 7.95% | 6.38% | 0.46% | 0.05% | 2.23% | 1.03% | 2.94% | 0.28% | 12.3% | 1.6% | 2.83% | 2.97% | 0.68% | 2.67%
Nc1nc(Cl)nc2c1ncn2[C@@H]1O[C@H](CO)[C@@H](O)[C@@H]1F [Clofarabine] (10000 nM) | 16.4% | 75.3% | 92.3% | 17% | 84.2% | 40.3% | 68.2% | 40.5% | 21.4% | 29.1% | 49.3% | 66.3% | 56.9% | 73.7% | 27.4% | 35.4% | 36.8% | 73% | 41.2% | 12.4% | 35.5% | 14% | 91.7% | 51.2%
CCN(CC)CCOc1ccc(C(=C(Cl)c2ccccc2)c2ccccc2)cc1 [Clomifene] (10000 nM) | 65% | 14.7% | 26.5% | 98.5% | 10.1% | 95.4% | 26.6% | 74.4% | 87.6% | 4.3% | 44.1% | 8.15% | 46.1% | 82.1% | 71.3% | 44.9% | 27.5% | 4.7% | 7.39% | 84.7% | 93.4% | 48.2% | 38.8% | 42.8%
C[C@@H]1C[C@H]2[C@@H]3CCC4=CC(=O)C=C[C@]4(C)[C@@]3(F)[C@@H](O)C[C@]2(C)[C@@]1(O)C(=O)CO [Dexamethasone] (10000 nM) | 95.2% | 78.7% | 94.2% | 132% | 98.4% | 99.6% | 105% | 98.2% | 103% | 83.5% | 101% | 137% | 79.9% | 82% | 96.7% | 124% | 86.9% | 149% | 75.3% | 97.9% | 109% | 104% | 125% | 105%
CC(C)C(=O)Nc1ccc([N+](=O)[O-])c(C(F)(F)F)c1 [Flutamide] (10000 nM) | 93.9% | 96.1% | 90.9% | 89.6% | 92.7% | 95% | 101% | 101% | 98.4% | 90% | 97.7% | 95.6% | 96.7% | 92.4% | 94.1% | 90.1% | 105% | 93.3% | 91.7% | 98.3% | 106% | 87.4% | 124% | 84.8%
COc1cc2c(Oc3ccc(NC(=O)C4(C(=O)Nc5ccc(F)cc5)CC4)cc3F)ccnc2cc1OCCCN1CCOCC1 [Foretinib] (1000 nM) | 34.1% | 125% | 44.6% | 67.3% | 72.5% | 69.2% | 76% | 48.9% | 73.3% | 104% | 80.8% | 73% | 60.7% | 66.1% | 75.5% | 90.3% | 98% | 60.2% | 51.8% | 24.8% | 25.8% | 29.4% | 45.4% | 66.8%
NC(=O)NO [Hydroxyurea] (100000 nM) | 102% | 106% | 104% | 29% | 95% | 104% | 104% | 102% | 103% | 96.4% | 102% | 97.2% | 105% | 97% | 77.4% | 101% | 110% | 98.5% | 91.5% | 100% | 119% | 121% | 123% | 90%
O=NN(CCCl)C(=O)NC1CCCCC1 [Lomustine] (10000 nM) | 101% | 107% | 106% | 110% | 99% | 96.2% | 103% | 97% | 105% | 104% | 99.7% | 97.2% | 104% | 99.5% | 104% | 99.9% | 101% | 95.9% | 47.5% | 104% | 99.1% | 91.5% | 111% | 77.4%
O=C(O)CC[C@H]1CC[C@@](c2cc(F)ccc2F)(S(=O)(=O)c2ccc(Cl)cc2)CC1 [MK-0752] (1000 nM) | 94% | 108% | 100% | 126% | 95.1% | 103% | 98.5% | 115% | 105% | 89% | 102% | 95.4% | 95.6% | 95.5% | 93% | 98.1% | 117% | 97% | 117% | 100% | 119% | 110% | 126% | 104%
NC(=O)c1cccc2cn(-c3ccc([C@@H]4CCCNC4)cc3)nc12 [MK-4827] (10000 nM) | 45.8% | 108% | 106% | 65.8% | 101% | 87.3% | 85.2% | 71.8% | 68.9% | 91.4% | 69.3% | 85.8% | 101% | 94.3% | 83.7% | 81.8% | 73.3% | 87.4% | 63.2% | 40.7% | 59.2% | 32.7% | 94% | 73.2%
CO[C@H]1C[C@@H]2CC[C@@H](C)[C@@](O)(O2)C(=O)C(=O)N2CCCC[C@H]2C(=O)O[C@H]([C@H](C)C[C@@H]2CC[C@@H](O)[C@H](OC)C2)CC(=O)[C@H](C)/C=C(\C)[C@@H](O)[C@@H](OC)C(=O)[C@H](C)C[C@H](C)/C=C/C=C/C=C/1C [Sirolimus] (100 nM) | 53.4% | 53.2% | 64.9% | 61.3% | 66.9% | 62.4% | 68.8% | 59.6% | 73.9% | 95.8% | 72.8% | 78.8% | 85.7% | 73.4% | 54.1% | 60.5% | 57.4% | 81.2% |  |  |  |  |  | 
